Laboratory results as given in ChEMBL document CHEMBL6078703, “Discovery of Novel Thiophene-Based Baloxavir Derivatives as Potent Cap-Dependent Endonuclease Inhibitors for Influenza Treatment” (J Med Chem, 2024).
Calls of active or inactive are those of the source. No cut-off for these calls is given here.

How the values were obtained:
Influenza A virus [1] = assay: Antiviral activity against influenza strain A/Aichi/ 2/1968 (H3N2) infected in MDCK cells assessed as reduction of virus-induced cytopathic effect measured after 2 days incubation; format: functional, organism-based; conditions: 48 h
[2] = Selectivity index, ratio of CC50 for dog MDCK cells to EC50 for antiviral activity against influenza strain A/Aichi/ 2/1968 (H3N2) infected in MDCK cells; format: toxicity, cell-based; conditions: read-out: Selectivity Index
[3] = Selectivity index, ratio of CC50 for dog MDCK cells to EC50 for antiviral activity against influenza strain A/WSN/1933 (H1N1) infected in MDCK cells; format: toxicity, cell-based; conditions: read-out: Selectivity Index
Influenza A virus [4] = assay: Antiviral activity against influenza strain A/WSN/1933 (H1N1) infected in MDCK cells assessed as reduction of virus-induced cytopathic effect measured after 2 days incubation; format: functional, organism-based; conditions: 48 h
[5] = Cytotoxicity against dog MDCK cells assessed as cell viability measured after 48 hrs by CCK-8 assay; format: toxicity, cell-based, Canis lupus familiaris
[6] = Metabolic stability in human liver microsomes assessed as intrinsic clearance measured up to 60 mins by LC-MS/MS analysis; format: ADME, Microsome; conditions: read-out: CLH
[7] = Metabolic stability in mouse liver microsomes assessed as intrinsic clearance measured up to 60 mins by LC-MS/MS analysis; format: ADME, Microsome; conditions: read-out: CLH
[8] = Metabolic stability in human liver microsomes assessed as half life measured up to 60 mins by LC-MS/MS analysis; format: ADME, Microsome
[9] = Metabolic stability in mouse liver microsomes assessed as half life measured up to 60 mins by LC-MS/MS analysis; format: ADME, Microsome
[10] = Cytotoxicity against human HepG2 cells assessed as cell viability measured after 48 hrs by CCK-8 assay; format: toxicity, cell-based
Influenza A virus [11] = assay: In vivo antiviral activity against influenza strain A/WSN/1933 (H1N1) infected in BALB/c mouse assessed as improvement in septal thickening in lungs at 20 to 40 mg/kg, IG treated 12 hrs after infection measured on 9 dpi by histopathological analysis; format: functional, organism-based; conditions: dose 20-40 mg/kg, time 9.0 day
[12] = AUC (0 to infinity) in CD-1 mouse at 15 mg/kg, po measured up to 24 hrs by LC-MS/MS analysis; format: ADME, organism-based; conditions: mouse, in vivo, po, 15 mg/kg, 24 h
[13] = Cytotoxicity against human Huh-7 cells assessed as cell viability measured after 48 hrs by CCK-8 assay; format: toxicity, cell-based
Influenza A virus [14] = assay: Antiviral activity against influenza virus clinical strain H3N2 (A/Guangdong/2/2023) infected in MDCK cells assessed as reduction of virus-induced cytopathic effect measured after 2 days incubation; format: functional, organism-based; conditions: 48 h
[15] = AUC (0 to infinity) in CD-1 mouse at 1 mg/kg, iv measured up to 24 hrs by LC-MS/MS analysis; format: ADME, organism-based; conditions: mouse, in vivo, iv, 1 mg/kg, 24 h
[16] = Cytotoxicity against human 786O cells assessed as cell viability measured after 48 hrs by CCK-8 assay; format: toxicity, cell-based, 786-0
Influenza A virus [17] = assay: In vivo antiviral activity against influenza strain A/WSN/1933 (H1N1) infected in BALB/c mouse assessed as improvement in alveolar collapse in lungs at 20 to 40 mg/kg, IG treated 12 hrs after infection measured on 9 dpi by histopathological analysis; format: functional, organism-based; conditions: dose 20-40 mg/kg, time 9.0 day
[18] = Oral bioavailability in CD-1 mouse at 15 mg/kg measured up to 24 hrs by LC-MS/MS analysis; format: ADME, organism-based; conditions: mouse, in vivo, po, 15 mg/kg, 24 h
Influenza A virus [19] = assay: In vivo antiviral activity against influenza strain A/WSN/1933 (H1N1) infected in BALB/c mouse assessed as weight regaining at 10 to 40 mg/kg, IG treated 12 hrs after infection measured on 9 dpi; format: functional, organism-based; conditions: dose 10-40 mg/kg, time 9.0 day
Influenza A virus [20] = assay: In vivo antiviral activity against influenza strain A/WSN/1933 (H1N1) infected in BALB/c mouse assessed as increase in mouse survival at 10 to 40 mg/kg, IG treated 12 hrs after infection measured on 9 dpi; format: functional, organism-based; conditions: dose 10-40 mg/kg, time 9.0 day
[21] = Cytotoxicity against human Hep3B cells assessed as cell viability measured after 48 hrs by CCK-8 assay; format: toxicity, cell-based, Hep 3B2

| Compound | EC50 (Influenza A virus [1]) | selectivity ratio [2] | selectivity ratio [3] | EC50 (Influenza A virus [4]) | CC50 at 48 h [5] | other results |
| --- | --- | --- | --- | --- | --- | --- |
| O=C1c2c(O)c(=O)ccn2N([C@H](c2cccc(F)c2)c2cccs2)[C@@H]2COCCN12 | 26 nM | 1320 | 9840 | 3.49 nM | 34300 nM | – |
| O=C1c2c(O)c(=O)ccn2N([C@H](c2ccc(F)c(F)c2)c2cccs2)[C@@H]2COCCN12 | 3.08 nM | 8200 | 3140 | 8.04 nM | 25200 nM | CLint scaled [6]: 4.68 mL/min/kg; CLint scaled [7]: 11.9 mL/min/kg; half-life [8]: 4.45 h; half-life [9]: 7.7 h |
| Cc1ccc([C@@H](c2cccs2)N2[C@@H]3COCCN3C(=O)c3c(O)c(=O)ccn32)cc1C | 1.79 nM | 15600 | 4190 | 6.67 nM | 28000 nM | – |
| O=C1c2c(O)c(=O)ccn2N([C@@H](c2ccc(F)c(F)c2)c2ccc(Br)s2)[C@@H]2COCCN12 | 31.6 nM | 623 | 652 | 30.2 nM | 19700 nM | – |
| O=C1c2c(O)c(=O)ccn2N([C@@H](c2ccc3ccccc3c2)c2cccs2)[C@@H]2COCCN12 | 53.6 nM | 758 | 960 | 42.3 nM | 40600 nM | – |
| O=C1c2c(O)c(=O)ccn2N([C@@H](c2ccc(F)c(F)c2)c2ccc(-c3ccccc3)s2)[C@@H]2COCCN12 | 11.1 nM | 3580 | 1100 | 36.2 nM | 39800 nM | – |
| O=C1c2c(O)c(=O)ccn2N([C@H](c2ccc(F)c(F)c2)c2cc3ccccc3s2)[C@@H]2COCCN12 | 20.3 nM | > 2460 | > 2400 | 20.9 nM | > 50000 nM | – |
| O=C1c2c(O)c(=O)ccn2N([C@H](c2ccc3ccccc3c2)c2cccs2)[C@@H]2COCCN12 | 76.3 nM | – | 752 | 22.8 nM | 17200 nM | – |
| O=C1c2c(O)c(=O)ccn2N([C@H](c2ccc(Cl)c(Cl)c2)c2cccs2)[C@@H]2COCCN12 | 13 nM | 931 | 215 | 56.2 nM | 12100 nM | – |
| O=C1c2c(O)c(=O)ccn2N([C@H](c2ccc(F)c(F)c2)c2ccc(Br)s2)[C@@H]2COCCN12 | 28.3 nM | 613 | 353 | 49.1 nM | 17300 nM | – |
| O=C1c2c(O)c(=O)ccn2N([C@H](c2cc(F)c(F)c(F)c2)c2cccs2)[C@@H]2COCCN12 | 21.9 nM | 1190 | 13600 | 1.91 nM | 26000 nM | – |
| O=C1c2c(O)c(=O)ccn2N([C@@H](c2ccccc2)c2cccs2)[C@@H]2COCCN12 | 21.8 nM | > 2300 | > 1260 | 39.8 nM | > 50000 nM | – |
| O=C1c2c(O)c(=O)ccn2N([C@@H](c2ccc(F)c(F)c2)c2ccc(Cl)s2)[C@@H]2COCCN12 | 51.9 nM | 373 | 663 | 29.2 nM | 19400 nM | – |
| O=C1c2c(O)c(=O)ccn2N([C@H](c2cccs2)c2cc(F)c(F)c(F)c2F)[C@@H]2COCCN12 | 13.8 nM | > 3630 | > 4020 | 12.4 nM | > 50000 nM | – |
| O=C1c2c(O)c(=O)ccn2N([C@@H](c2cc(F)c(F)c(F)c2)c2cccs2)[C@@H]2COCCN12 | 5.43 nM | > 9210 | > 5350 | 9.34 nM | > 50000 nM | – |
| O=C1c2c(O)c(=O)ccn2N([C@@H](c2ccc(Cl)c(Cl)c2)c2cccs2)[C@@H]2COCCN12 | 60.6 nM | 539 | 729 | 44.8 nM | 32600 nM | – |
| O=C1c2c(O)c(=O)ccn2N([C@@H](c2cccs2)c2cc(F)c(F)c(F)c2F)[C@@H]2COCCN12 | 7.78 nM | > 6430 | > 8860 | 5.64 nM | > 50000 nM | – |
| O=C1c2c(O)c(=O)ccn2N([C@@H](c2ccc(Br)c(Br)c2)c2cccs2)[C@@H]2COCCN12 | 6.9 nM | > 7250 | > 1400 | 35.6 nM | > 50000 nM | – |
| O=C1c2c(O)c(=O)ccn2N([C@@H]2c3ccccc3SCc3c2ccc(F)c3F)[C@@H]2COCCN12 [BALOXAVIR] | 3.81 nM | 2440 | 5290 | 1.76 nM | – | CC50 at 48 h [10]: 19100 nM; Activity (Influenza A virus [11]): Active; AUC [12]: 2877 ng·h/mL; CC50 at 48 h [13]: 9340 nM; EC50 (Influenza A virus [14]): 1.75 nM; AUC [15]: 239 ng·h/mL; CC50 at 48 h [16]: 2860 nM; Activity (Influenza A virus [17]): Active; F [18]: 27.2%; Activity (Influenza A virus [19]): Active; Surviving Animals Gradually Starting Weight Weight Beginning 9 Dpi; Activity (Influenza A virus [20]): Active; CC50 at 48 h [21]: 7380 nM |
| O=C1c2c(O)c(=O)ccn2N([C@H](c2ccc(Br)c(Br)c2)c2cccs2)[C@@H]2COCCN12 | 17.6 nM | 1410 | 1540 | 16.2 nM | 24900 nM | – |
| O=C1c2c(O)c(=O)ccn2N([C@@H](c2ccc(F)cc2)c2cccs2)[C@@H]2COCCN12 | 1.65 nM | 22800 | 7440 | 5.06 nM | 37600 nM | CLint scaled [6]: 1.62 mL/min/kg; CLint scaled [7]: 3.96 mL/min/kg; half-life [8]: 12.8 h; half-life [9]: 23.1 h |
| O=C1c2c(O)c(=O)ccn2N([C@@H](c2ccc(F)c(F)c2)c2cc3ccccc3s2)[C@@H]2COCCN12 | 5.98 nM | > 8360 | > 1180 | 42.4 nM | > 50000 nM | – |
| O=C1c2c(O)c(=O)ccn2N([C@H](c2ccc(F)c(F)c2)c2ccc(Cl)s2)[C@@H]2COCCN12 | 30.8 nM | 783 | 1510 | 15.9 nM | 24100 nM | – |
| O=C1c2c(O)c(=O)ccn2N([C@H](c2ccc(F)cc2)c2cccs2)[C@@H]2COCCN12 | – | – | 8390 | 3.19 nM | – | – |
| O=C(O)Cc1ccccc1Nc1c(Cl)cccc1Cl [DICLOFENAC] | – | – | – | – | – | CLint scaled [6]: 221 mL/min/kg; CLint scaled [7]: 136 mL/min/kg |
| O=C1c2c(O)c(=O)ccn2N([C@@H](c2cccc(F)c2)c2cccs2)[C@@H]2COCCN12 | 15.2 nM | > 3290 | > 9020 | 5.54 nM | > 50000 nM | – |
| O=C1c2c(O)c(=O)ccn2N([C@H](c2ccccc2)c2cccs2)[C@@H]2COCCN12 | 46.8 nM | > 1070 | > 1370 | 36.4 nM | > 50000 nM | – |
| Cc1ccc([C@H](c2cccs2)N2[C@@H]3COCCN3C(=O)c3c(O)c(=O)ccn32)cc1C | 8.11 nM | 2530 | 429 | 47.8 nM | 20500 nM | – |
| O=C1c2c(O)c(=O)ccn2N([C@H](c2ccc(F)c(F)c2)c2ccc(-c3ccccc3)s2)[C@@H]2COCCN12 | 3.75 nM | 12900 | 2380 | 20.4 nM | 48500 nM | – |
